# Values of other authors in paper PMC3819144 (Biochemical pharmacology, 2013).
# Tests used:
# CXCR7 [1] = system: CXCR7
# CXCR7 [2] = conditions: requires relatively high concentrations
smiles,measurement,setting,value
c1cc(CN2CCCNCCNCCCNCC2)ccc1CN1CCCNCCNCCCNCC1 [AMD3100],CXCR7 signaling through β-arrestin 2 / recruitment of β-arrestin 2,CXCR7 [1],modestly activate CXCR7 signaling through β-arrestin 2
same,effect on binding of CXCL12 to CXCR7,CXCR7 [2],enhance binding of CXCL12 to CXCR7
